Assays:
Conditions in all cases: 72 h
HCC1937 [1] = test system: HCC1937
Procedure: (§1)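 Drug sensitivity and resistance testing (DSRT) of breast cancer cell lines in 384-well plates, 5 concentrations in 10-fold dilutions over a compound-specific 10,000-fold range. After 72 h, cytotoxicity was read by CellTox Green fluorescence and viability by CellTiter-Glo luminescence (multiplexed), normalised to DMSO and benzethonium chloride controls. EC50 is the inflection point of the fitted dose-response curve (bottom asymptote free, so it can be relative for partial curves) and is censored at the highest tested concentration. Rows with DSS 0 (no meaningful response) were excluded.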

MDA-MB-468 [2] = test system: MDA-MB-468
Procedure: as §1

CAL-148 [3] = test system: CAL-148
Summary of the method: (§2)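 For viability and cell death testing, 384-well plates carried compound at 5 concentrations in 10-fold steps over a compound-specific 10,000-fold range, and breast cancer cell lines were seeded in 20 µl suspension. After 72 h incubation, cell death was read by CellTox Green fluorescence (485/520 nm) before viability was read by CellTiter-Glo luminescence. EC50 was fitted from the dose-response curves and censored at the top concentration. Normalisation on each plate was to 0.1 % DMSO and a positive kill control.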

HCC1937 [4] = test system: HCC1937; remark: listed apart in the source
Summary of the method: as §2

HCC1143 [5] = test system: HCC1143
Summary of the method: as §2

MCF-10A = test system: MCF-10A
Summary of the method: as §2

MDA-MB-231 [6] = test system: MDA-MB-231
Summary of the method: as §2

BT-474 [7] = test system: BT-474
Summary of the method: as §2

CAL-120 [8] = test system: CAL-120
Summary of the method: as §2

HDQ-P1 [9] = test system: HDQ-P1
Summary of the method: as §2

HCC1599 [10] = test system: HCC1599
Summary of the method: as §2

Hs578T [11] = test system: Hs578T
Summary of the method: as §2

DU-4475 [12] = test system: DU-4475
Summary of the method: as §2

MFM-223 [13] = test system: MFM-223
Summary of the method: as §2

MDA-MB-453 [14] = test system: MDA-MB-453
Summary of the method: as §2

MDA-MB-436 [15] = test system: MDA-MB-436
Summary of the method: as §2

MDA-MB-468 [16] = test system: MDA-MB-468; remark: listed apart in the source
Summary of the method: as §2

CAL-85-1 [17] = test system: CAL-85-1
Summary of the method: as §2

CAL-148 [18] = test system: CAL-148; remark: listed apart in the source
Procedure: as §1

MDA-MB-231 [19] = test system: MDA-MB-231; remark: listed apart in the source
Procedure: as §1

CAL-51 [20] = test system: CAL-51
Procedure: as §1

MFM-223 [21] = test system: MFM-223; remark: listed apart in the source
Procedure: as §1

MDA-MB-436 [22] = test system: MDA-MB-436; remark: listed apart in the source
Procedure: as §1

CAL-85-1 [23] = test system: CAL-85-1; remark: listed apart in the source
Procedure: as §1

SK-BR-3 [24] = test system: SK-BR-3
Summary of the method: as §2

BT-549 [25] = test system: BT-549
Summary of the method: as §2

CAL-51 [26] = test system: CAL-51; remark: listed apart in the source
Summary of the method: as §2

CAL-148 [27] = test system: CAL-148; remark: listed apart in the source
Summary of the method: (§3)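 For viability, cells received 2.5 µl CellTiter-Blue for 2 h at 37 °C and fluorescence was read at 560/590 nm. Before this, breast cancer cell lines in 20 µl suspension had been incubated for 72 h on 384-well plates pre-loaded with compound dissolved in 5 µl medium. EC50 was obtained from a percent-inhibition dose-response fit censored at the highest concentration, after normalisation of each plate to vehicle and a positive kill control; rows with a zero drug sensitivity score were discarded.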

CAL-51 [28] = test system: CAL-51; remark: listed apart in the source
Summary of the method: as §3

DU-4475 [29] = test system: DU-4475; remark: listed apart in the source
Summary of the method: as §3

MDA-MB-453 [30] = test system: MDA-MB-453; remark: listed apart in the source
Summary of the method: as §3

CAL-85-1 [31] = test system: CAL-85-1; remark: listed apart in the source
Summary of the method: as §3

HCC1937 [32] = test system: HCC1937; remark: listed apart in the source
Summary of the method: as §3

SK-BR-3 [33] = test system: SK-BR-3; remark: listed apart in the source
Summary of the method: as §3

HCC1143 [34] = test system: HCC1143; remark: listed apart in the source
Summary of the method: as §3

MDA-MB-231 [35] = test system: MDA-MB-231; remark: listed apart in the source
Summary of the method: as §3

BT-474 [36] = test system: BT-474; remark: listed apart in the source
Summary of the method: as §3

CAL-120 [37] = test system: CAL-120; remark: listed apart in the source
Summary of the method: as §3

HCC1599 [38] = test system: HCC1599; remark: listed apart in the source
Summary of the method: as §3

Hs578T [39] = test system: Hs578T; remark: listed apart in the source
Summary of the method: as §3

MFM-223 [40] = test system: MFM-223; remark: listed apart in the source
Summary of the method: as §3

MDA-MB-468 [41] = test system: MDA-MB-468; remark: listed apart in the source
Summary of the method: as §3

HDQ-P1 [42] = test system: HDQ-P1; remark: listed apart in the source
Summary of the method: as §3

BT-549 [43] = test system: BT-549; remark: listed apart in the source
Summary of the method: as §3

MDA-MB-436 [44] = test system: MDA-MB-436; remark: listed apart in the source
Summary of the method: as §3

EC50, CellTiter-Glo (HCC1143 [5]) | EC50, CellTiter-Glo (MDA-MB-231 [6]) | EC50, CellTiter-Glo (BT-474 [7]) | EC50, CellTiter-Glo (HCC1599 [10]) | EC50, CellTiter-Glo (MDA-MB-453 [14]) | EC50, CellTiter-Glo (MDA-MB-436 [15]) | EC50, CellTiter-Glo (MDA-MB-468 [16]) | EC50, CellTiter-Glo (BT-549 [25]) | EC50, CellTiter-Blue viability (HCC1937 [32]) | Compound | EC50, CellTox Green (MDA-MB-468 [2]) | EC50, CellTiter-Glo (CAL-148 [3]) | EC50, CellTiter-Glo (CAL-120 [8]) | EC50, CellTiter-Glo (HDQ-P1 [9]) | EC50, CellTiter-Glo (Hs578T [11]) | EC50, CellTiter-Glo (DU-4475 [12]) | EC50, CellTiter-Glo (MFM-223 [13]) | EC50, CellTiter-Glo (CAL-85-1 [17]) | EC50, CellTox Green (MDA-MB-231 [19]) | EC50, CellTiter-Blue viability (CAL-148 [27]) | EC50, CellTiter-Blue viability (CAL-51 [28]) | also measured
0.00805 µM | 0.0296 µM | 0.0408 µM | 0.00415 µM | 0.00271 µM | 0.0674 µM | 0.00353 µM |  |  | O=C(/C=C/c1cccnc1)NCCCCC1CCN(C(=O)c2ccccc2)CC1 [Daporinad] | 0.596 µM | 0.081 µM | 0.00973 µM | 0.0163 µM | 0.00427 µM | 0.00678 µM | 0.00211 µM | 0.00779 µM |  |  |  | EC50, CellTox Green (HCC1937 [1]): 0.0241 µM; EC50, CellTiter-Glo (HCC1937 [4]): 0.00697 µM; EC50, CellTiter-Glo (MCF-10A): 0.00785 µM
 |  |  |  |  |  |  |  | 0.0803 µM | O=C(/C=C/c1cccnc1)NCCCCC1CCN(C(=O)c2ccccc2)CC1 [FK-866] |  |  |  |  |  |  |  |  |  | 0.0344 µM | 0.0126 µM | EC50, CellTiter-Blue viability (HDQ-P1 [42]): 0.0213 µM; EC50, CellTiter-Blue viability (DU-4475 [29]): 0.0201 µM; EC50, CellTiter-Blue viability (MDA-MB-453 [30]): 0.00168 µM; EC50, CellTiter-Blue viability (CAL-85-1 [31]): 0.0257 µM; EC50, CellTiter-Blue viability (HCC1143 [34]): 0.00408 µM; EC50, CellTiter-Blue viability (MDA-MB-231 [35]): 0.0201 µM; EC50, CellTiter-Blue viability (BT-474 [36]): 0.0175 µM; EC50, CellTiter-Blue viability (BT-549 [43]): 0.00608 µM; EC50, CellTiter-Blue viability (CAL-120 [37]): 0.00866 µM; EC50, CellTiter-Blue viability (HCC1599 [38]): 0.0139 µM; EC50, CellTiter-Blue viability (Hs578T [39]): 0.00375 µM; EC50, CellTiter-Blue viability (MFM-223 [40]): 0.00405 µM; EC50, CellTiter-Blue viability (MDA-MB-436 [44]): 0.00508 µM; EC50, CellTiter-Blue viability (MDA-MB-468 [41]): 0.00301 µM

Further lines, the compound ahead of its results:

Compound | EC50, CellTiter-Glo (HCC1143 [5]) | EC50, CellTiter-Glo (MDA-MB-231 [6]) | EC50, CellTiter-Glo (BT-474 [7]) | EC50, CellTiter-Glo (HCC1599 [10]) | EC50, CellTiter-Glo (MDA-MB-453 [14]) | EC50, CellTiter-Glo (MDA-MB-436 [15]) | EC50, CellTiter-Glo (MDA-MB-468 [16]) | EC50, CellTiter-Glo (BT-549 [25]) | EC50, CellTiter-Blue viability (HCC1937 [32]) | EC50, CellTox Green (MDA-MB-468 [2]) | EC50, CellTiter-Glo (CAL-148 [3]) | EC50, CellTiter-Glo (CAL-120 [8]) | EC50, CellTiter-Glo (HDQ-P1 [9]) | EC50, CellTiter-Glo (Hs578T [11]) | EC50, CellTiter-Glo (DU-4475 [12]) | EC50, CellTiter-Glo (MFM-223 [13]) | EC50, CellTiter-Glo (CAL-85-1 [17]) | EC50, CellTox Green (MDA-MB-231 [19]) | EC50, CellTiter-Blue viability (CAL-148 [27]) | EC50, CellTiter-Blue viability (CAL-51 [28]) | also measured
Nc1ccccc1NC(=O)c1ccc(CNC(=O)OCc2cccnc2)cc1 [Entinostat] | 4.76 µM | 7.17 µM | 7.64 µM | 4.84 µM | 2.16 µM | 1.33 µM | 4.17 µM | 0.925 µM | 1.17 µM | 1.23 µM | 2.56 µM |  | 2.38 µM | 1.55 µM | 3.83 µM | 4.85 µM | 8.31 µM | 7.14 µM | 2.99 µM | 7.86 µM | EC50, CellTox Green (CAL-148 [18]): 4.16 µM; EC50, CellTox Green (CAL-51 [20]): 1.14 µM; EC50, CellTox Green (MFM-223 [21]): 1.44 µM; EC50, CellTox Green (MDA-MB-436 [22]): 6.22 µM; EC50, CellTox Green (CAL-85-1 [23]): 4.31 µM; EC50, CellTiter-Glo (SK-BR-3 [24]): 2.16 µM; EC50, CellTiter-Glo (CAL-51 [26]): 0.356 µM; EC50, CellTiter-Blue viability (DU-4475 [29]): 5.7 µM; EC50, CellTiter-Blue viability (MDA-MB-453 [30]): 2.86 µM; EC50, CellTiter-Blue viability (CAL-85-1 [31]): 2.7 µM; EC50, CellTiter-Blue viability (SK-BR-3 [33]): 0.777 µM; EC50, CellTiter-Blue viability (HCC1143 [34]): 5.1 µM; EC50, CellTiter-Blue viability (MDA-MB-231 [35]): 2.88 µM; EC50, CellTiter-Blue viability (BT-474 [36]): 3.52 µM; EC50, CellTiter-Blue viability (CAL-120 [37]): 1.89 µM; EC50, CellTiter-Blue viability (HCC1599 [38]): 3.68 µM; EC50, CellTiter-Blue viability (Hs578T [39]): 5.88 µM; EC50, CellTiter-Blue viability (MFM-223 [40]): 2.71 µM; EC50, CellTiter-Blue viability (MDA-MB-468 [41]): 1.52 µM
Nc1nc(F)nc2c1ncn2[C@@H]1O[C@H](CO)[C@@H](O)[C@@H]1O [Fludarabine] |  |  |  |  |  | 7.39 µM |  | 5.92 µM | 1.32 µM |  |  | > 10 µM |  |  |  |  |  |  |  |  | EC50, CellTiter-Blue viability (SK-BR-3 [33]): 2.12 µM
CC[C@H](Nc1ncnc2[nH]cnc12)c1nc2cccc(F)c2c(=O)n1-c1ccccc1 [GS-1101] |  | 4.74 µM | 2.95 µM |  |  | 6.9 µM | 7.44 µM | 4.67 µM |  | 1.43 µM |  | 8.05 µM | 4.3 µM |  |  |  |  | 8.63 µM |  |  | 

— the supplement of paper PMC4862054
